# Reference: patent publication US8969403B2, “Crystalline forms of a 3-[2-methanesulfonyl-1-(4-trifluoromethyl-phenoxy)ethyl]pyrrolidine compound” (Theravance Biopharma R&D IP, LLC, priority 2011, dated 2015)
# Key:
# [1] = Dynamic moisture sorption (DMS) assessment; assay type: physicochemical; conditions: for crystalline form after the DMS experiment (by PXRD, DSC, TGA): 5% RH to 90% RH adsorption/desorption, 25° C.; for moisture picked up during the adsorption segment (DMS): 5% RH to 90% RH, isothermal 25° C., desorption matches adsorption, no hysteresis
# Description: Dynamic moisture sorption (DMS) measurements were performed for each crystalline form using a VTI atmospheric microbalance, SGA-100 system (VTI Corp., Hialeah, Fla. 33016). A weighed sample was used and the humidity was set at the ambient value at the start of the analysis. The DMS analysis consisted of a scan rate of 5% RH/step over the full humidity range of 5% relative humidity (RH) to 90% RH. The DMS run was performed isothermally at 25° C.
# [2] = Slurry conversion of mixed anhydrous Form I and Form II in MTBE:water (95:5); assay type: physicochemical; conditions: equal amounts Form I and Form II, room temperature, three days
# Description: Equal amounts (˜50 mg) of anhydrous Form I and anhydrous Form II were weighed out and physically mixed in a vial with a spatula. A solution of MTBE:water (95:5) was added to this solid mixture and stirred to form a suspension. The suspension was stirred at room temperature for three days and filtered through a filter paper. The solid residue was allowed to dry under ambient conditions and analyzed with powder X-ray diffractometry and DSC.
Structure (SMILES),"crystalline form after the DMS experiment (by PXRD, DSC, TGA) [1]",moisture picked up during the adsorption segment (DMS) [1],anhydrous Form II content of the filtered solid (PXRD) [2] [%],form conversion under slurry conditions [2],"moisture uptake between 60% RH and 65% RH (DMS adsorption segment) ([1]; gradual uptake until 60% RH, isotherm flat 65% RH to 90% RH, moisture not lost on desorption)"
"CS(=O)(=O)C[C@@H](Oc1ccc(C(F)(F)F)cc1)[C@H]1CCNC1 [anhydrous Form II, (S)-3-[(S)-2-methanesulfonyl-1-(4-trifluoromethylphenoxy)ethyl]pyrrolidine]",remains as Form II,less than 1 % by weight,–,–,–
"CS(=O)(=O)C[C@@H](Oc1ccc(C(F)(F)F)cc1)[C@H]1CCNC1 [anhydrous Form I, (S)-3-[(S)-2-methanesulfonyl-1-(4-trifluoromethylphenoxy)ethyl]pyrrolidine]",converted to the monohydrate form,–,> 95,converted to anhydrous Form II,rapid
"CS(=O)(=O)C[C@@H](Oc1ccc(C(F)(F)F)cc1)[C@H]1CCNC1 [monohydrate, (S)-3-[(S)-2-methanesulfonyl-1-(4-trifluoromethylphenoxy)ethyl]pyrrolidine]",remains as the monohydrate form,less than 1 % by weight,–,–,–
